# Experimental data published in patent US12371454B2, “Cyclic peptide compound having Kras inhibitory action” (priority 2019, dated 2025).
# Starred links: 1 amine or outer side, 2 acyl side, 3 side chain; linkers in the order of their positions; H or OH if unused. Positions of bridges follow the written chain, without caps; N, C: chain ends. Non-standard residues stand in square brackets, D forms with d. Residues, ends and D or L forms follow the SMILES beside them. *: point of attachment. hPhe(3-Cl-4-CF3) = N[C@@H](CCc1ccc(C(F)(F)F)c(Cl)c1)C(=O)O; hPhe(3-F,4-CF3) = N[C@@H](CCc1ccc(C(F)(F)F)c(F)c1)C(=O)O; NMePhe(4-CF3) = CN[C@@H](Cc1ccc(C(F)(F)F)cc1)C(=O)O; Pro(cis-4-Ph) = O=C(O)[C@@H]1C[C@H](c2ccccc2)CN1; 3Oxa8azabicyclo(3.2.1)octane = C1CC2COCC1N2*; NMePhe(4-Cl) = CN[C@@H](Cc1ccc(Cl)cc1)C(=O)O; NMePhe(4-Me) = CN[C@@H](Cc1ccc(C)cc1)C(=O)O; NMeNle(6-CHF2) = CN[C@@H](CCCCC(F)F)C(=O)O; NMedβ3hAla = C[C@H](CC(=O)[*:2])N(C)[*:1]; NMeGly(cPent) = CN[C@H](C(=O)O)C1CCCC1; NMeCha = CN[C@@H](CC1CCCCC1)C(=O)O; cisHyp = O=C(O)[C@@H]1C[C@H](O)CN1; NMehLeu = CN[C@@H](CCC(C)C)C(=O)O; Hyp = O=C(O)[C@@H]1C[C@@H](O)CN1; NMeChg = CN[C@H](C(=O)O)C1CCCCC1; NMeI = CC[C@H](C)[C@H](NC)C(=O)O; NMeD = CN[C@@H](CC(=O)O)C(=O)O; Benzyl(4-Cl) = Clc1ccc(C*)cc1; NMeL = CN[C@@H](CC(C)C)C(=O)O; NMeV = CN[C@H](C(=O)O)C(C)C; d(β3hA) = C[C@@H](N)CC(=O)O; Azetidin(1-yl) = C1CN(*)C1; NMeS = CN[C@@H](CO)C(=O)O; Morpholide = C1CN(*)CCO1; NMeA = CN[C@@H](C)C(=O)O; Piperidide = C1CCN(*)CC1; Pyrrolidide = C1CCN(*)C1; Ac5c = NC1(C(=O)O)CCCC1; Aze = O=C(O)[C@@H]1CCN1; Ethyl(2-OH) = OCC*; Sar = CNCC(=O)O; Propyl = CCC*
# Test system: Human pancreatic cancer cell line AsPC-1
# Test: Measurement of AsPC-1 cell growth inhibition (AsPC-1 CGI)
# Format: cell-based
# Settings: 96 h
# Procedure, shortened: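 AsPC-1 cells in 15% FBS RPMI-1640 were exposed to test compound for 96 hours at 37° C, with CellTiter-Glo as endpoint.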
row,Structure (SMILES),IC50
1,"CC[C@H](C)[C@@H]1NC(=O)[C@H](CC(C)C)N(C)C(=O)C[C@@H](C(=O)N2CCCCC2)N(C)C(=O)[C@H](C2CCCCC2)N(C)C(=O)C2(CCCC2)NC(=O)[C@@H]2C[C@@H](OCCO)CN2C(=O)[C@H](CCc2ccc(C(F)(F)F)c(Cl)c2)NC(=O)CN(C)C(=O)[C@H](CC2CCCCC2)N(C)C(=O)CN(C)C(=O)CN(C)C1=O [Compound 2122, (3S,9S,18S,21S,25S,28S,34S,36R)-3-[2-[3-chloro-4-(trifluoromethyl)phenyl]ethyl]-28-cyclohexyl-9-(cyclohexylmethyl)-36-(2-hydroxyethoxy)-21-isobutyl-7,10,13,16,22,26,29-heptamethyl-18-[(1S)-1-methylpropyl]-25-(piperidine-1-carbonyl)spiro[1,4,7,10,13,16,19,22,26,29,32-undecazabicyclo[32.3.0]heptatriacontane-31,1′-cyclopentane]-2,5,8,11,14,17,20,23,27,30,33-undecone] ([NMeL]I[Sar][Sar][NMeCha][Sar][hPhe(3-Cl-4-CF3)][Hyp](Ethyl(2-OH))[Ac5c][NMeChg][NMeD]-Piperidide; lactam N-11)",50 to 100 nM
2,CC[C@H](C)[C@@H]1NC(=O)[C@H](CC(C)C)N(C)C(=O)C[C@@H](C(=O)N2CCCCC2)N(C)C(=O)[C@H](C(C)C)N(C)C(=O)C2(CCCC2)NC(=O)[C@@H]2CCCN2C(=O)[C@H](CCc2ccc(C(F)(F)F)c(Cl)c2)NC(=O)CN(C)C(=O)[C@H](CCCCC(F)F)N(C)C(=O)[C@@H]2CCN2C(=O)[C@H](C)N(C)C1=O [Compound 78] ([NMeL]I[NMeA][Aze][NMeNle(6-CHF2)][Sar][hPhe(3-Cl-4-CF3)]P[Ac5c][NMeV][NMeD]-Piperidide; lactam N-11),100 to 500 nM
3,CC[C@H](C)[C@@H]1NC(=O)[C@H](CC(C)C)N(C)C(=O)C[C@@H](C)NC(=O)[C@H]([C@@H](C)CC)N(C)C(=O)C2(CCCC2)NC(=O)[C@@H]2CCCN2C(=O)[C@H](CCc2ccc(C(F)(F)F)c(Cl)c2)NC(=O)CN(C)C(=O)[C@H](CC2CCCCC2)N(C)C(=O)[C@@H]2CCN2C(=O)[C@H](C)N(C)C1=O [Compound 1654] (cyclo([Ac5c][NMeI][d(β3hA)][NMeL]I[NMeA][Aze][NMeCha][Sar][hPhe(3-Cl-4-CF3)]P)),50 to 100 nM
4,CCO[C@@H]1C[C@H]2C(=O)NC3(CCCC3)C(=O)N(C)[C@@H](CC(C)C)C(=O)N(C)[C@H](C)CC(=O)N(C)[C@@H](CC(C)C)C(=O)N[C@@H]([C@@H](C)CC)C(=O)N(C)CC(=O)N(C)CC(=O)N(C)[C@@H](CC3CCCCC3)C(=O)N(C)CC(=O)N[C@@H](CCc3ccc(C(F)(F)F)c(Cl)c3)C(=O)N2C1 [Compound 1851] (cyclo([Ac5c][NMeL][NMedβ3hAla][NMeL]I[Sar][Sar][NMeCha][Sar][hPhe(3-Cl-4-CF3)][Hyp](Et))),20 to 50 nM
5,CCO[C@@H]1C[C@H]2C(=O)NC3(CCCC3)C(=O)N(C)[C@@H](C3CCCCC3)C(=O)N(C)[C@H](C)CC(=O)N(C)[C@@H](CC(C)C)C(=O)N[C@@H]([C@@H](C)CC)C(=O)N(C)[C@@H](C)C(=O)N3CC[C@H]3C(=O)N(C)[C@@H](Cc3ccc(C(F)(F)F)cc3)C(=O)N(C)CC(=O)N[C@@H](CCc3ccc(C(F)(F)F)c(Cl)c3)C(=O)N2C1 [Compound 652] (cyclo([Ac5c][NMeChg][NMedβ3hAla][NMeL]I[NMeA][Aze][NMePhe(4-CF3)][Sar][hPhe(3-Cl-4-CF3)][Hyp](Et))),50 to 100 nM
6,CC[C@H](C)[C@@H]1NC(=O)[C@H](C)N(C)C(=O)C[C@@H](C)NC(=O)[C@H](C2CCCC2)N(C)C(=O)C2(CCCC2)NC(=O)[C@@H]2CCCN2C(=O)[C@H](CCc2ccc(C(F)(F)F)c(Cl)c2)NC(=O)CN(C)C(=O)[C@H](Cc2ccc(C)cc2)N(C)C(=O)[C@@H]2CCN2C(=O)[C@H](C)N(C)C1=O [Compound 1514] (cyclo([Ac5c][NMeGly(cPent)][d(β3hA)][NMeA]I[NMeA][Aze][NMePhe(4-Me)][Sar][hPhe(3-Cl-4-CF3)]P)),100 to 500 nM
7,CC[C@H](C)[C@@H]1NC(=O)[C@H](CC(C)C)N(C)C(=O)C[C@@H](C)NC(=O)[C@H](C(C)C)N(C)C(=O)C2(CCCC2)NC(=O)[C@@H]2CCCN2C(=O)[C@H](CCc2ccc(C(F)(F)F)c(Cl)c2)NC(=O)CN(C)C(=O)[C@H](Cc2ccc(Cl)cc2)N(C)C(=O)[C@@H]2CCN2C(=O)CN(C)C1=O [Compound 207] (cyclo([Ac5c][NMeV][d(β3hA)][NMeL]I[Sar][Aze][NMePhe(4-Cl)][Sar][hPhe(3-Cl-4-CF3)]P)),100 to 500 nM
8,"CCCOC[C@H]1C(=O)N(C)CC(=O)N[C@@H](CCc2ccc(C(F)(F)F)c(F)c2)C(=O)N2CCC[C@H]2C(=O)NC2(CCCC2)C(=O)N(C)[C@@H]([C@@H](C)CC)C(=O)N(C)[C@H](C(=O)N2CCOCC2)CC(=O)N(C)[C@@H](CC(C)C)C(=O)N[C@@H]([C@@H](C)CC)C(=O)N(C)[C@@H](C)C(=O)N2CC[C@H]2C(=O)N1C [Compound 827] ([NMeL]I[NMeA][Aze][NMeS](Propyl)[Sar][hPhe(3-F,4-CF3)]P[Ac5c][NMeI][NMeD]-Morpholide; lactam N-11)",20 to 50 nM
9,CC[C@H](C)[C@@H]1NC(=O)[C@H](CC(C)C)N(C)C(=O)C[C@@H](C(=O)N2CCCCC2)N(C)C(=O)[C@H](C2CCCCC2)N(C)C(=O)C2(CCCC2)NC(=O)[C@@H]2C[C@H](c3ccccc3)CN2C(=O)[C@H](CCc2ccc(C(F)(F)F)c(Cl)c2)NC(=O)CN(C)C(=O)[C@H](CC2CCCCC2)N(C)C(=O)[C@@H]2CCN2C(=O)CN(C)C1=O [Compound 960] ([NMeL]I[Sar][Aze][NMeCha][Sar][hPhe(3-Cl-4-CF3)][Pro(cis-4-Ph)][Ac5c][NMeChg][NMeD]-Piperidide; lactam N-11),100 to 500 nM
10,CCO[C@@H]1C[C@H]2C(=O)NC3(CCCC3)C(=O)N(C)[C@@H](CC(C)C)C(=O)N(C)[C@H](C(=O)N3CCOCC3)CC(=O)N(C)[C@@H](CC(C)C)C(=O)N[C@@H]([C@@H](C)CC)C(=O)N(C)CC(=O)N(C)CC(=O)N(C)[C@@H](CC3CCCCC3)C(=O)N(C)CC(=O)N[C@@H](CCc3ccc(C(F)(F)F)c(Cl)c3)C(=O)N2C1 [Compound 1785] ([NMeL]I[Sar][Sar][NMeCha][Sar][hPhe(3-Cl-4-CF3)][Hyp](Et)[Ac5c][NMeL][NMeD]-Morpholide; lactam N-11),50 to 100 nM
11,"CCCOC[C@H]1C(=O)N(C)CC(=O)N[C@@H](CCc2ccc(C(F)(F)F)c(F)c2)C(=O)N2CCC[C@H]2C(=O)NC2(CCCC2)C(=O)N(C)[C@@H]([C@@H](C)CC)C(=O)N(C)[C@H](C(=O)N2CCCCC2)CC(=O)N(C)[C@@H](CC(C)C)C(=O)N[C@@H]([C@@H](C)CC)C(=O)N(C)[C@@H](C)C(=O)N2CC[C@H]2C(=O)N1C [Compound 236] ([NMeL]I[NMeA][Aze][NMeS](Propyl)[Sar][hPhe(3-F,4-CF3)]P[Ac5c][NMeI][NMeD]-Piperidide; lactam N-11)",20 to 50 nM
12,CC[C@H](C)[C@@H]1NC(=O)[C@H](CC(C)C)N(C)C(=O)C[C@@H](C)N(C)C(=O)[C@H](C2CCCC2)N(C)C(=O)C2(CCCC2)NC(=O)[C@@H]2CCCN2C(=O)[C@H](CCc2ccc(C(F)(F)F)c(Cl)c2)NC(=O)CN(C)C(=O)[C@H](C2CCCC2)N(C)C(=O)[C@@H]2CCN2C(=O)[C@H](C)N(C)C1=O [Compound 1046] (cyclo([Ac5c][NMeGly(cPent)][NMedβ3hAla][NMeL]I[NMeA][Aze][NMeGly(cPent)][Sar][hPhe(3-Cl-4-CF3)]P)),20 to 50 nM
13,"CC[C@H](C)[C@@H]1NC(=O)[C@H](CC(C)C)N(C)C(=O)C[C@@H](C(=O)N2CCCCC2)N(C)C(=O)[C@H]([C@@H](C)CC)N(C)C(=O)C2(CCCC2)NC(=O)[C@@H]2CCCN2C(=O)[C@H](CCc2ccc(C(F)(F)F)c(F)c2)NC(=O)CN(C)C(=O)[C@H](CC2CCCCC2)N(C)C(=O)[C@@H]2CCN2C(=O)[C@H](C)N(C)C1=O [Compound 409] ([NMeL]I[NMeA][Aze][NMeCha][Sar][hPhe(3-F,4-CF3)]P[Ac5c][NMeI][NMeD]-Piperidide; lactam N-11)",50 to 100 nM
14,CCCOC[C@H]1C(=O)N(C)CC(=O)N[C@@H](CCc2ccc(C(F)(F)F)c(Cl)c2)C(=O)N2CCC[C@H]2C(=O)NC2(CCCC2)C(=O)N(C)[C@@H](C2CCCC2)C(=O)N(C)[C@H](C(=O)N2C3CCC2COC3)CC(=O)N(C)[C@@H](CCC(C)C)C(=O)N[C@@H]([C@@H](C)CC)C(=O)N(C)[C@@H](C)C(=O)N2CC[C@H]2C(=O)N1C [Compound 1154] ([NMehLeu]I[NMeA][Aze][NMeS](Propyl)[Sar][hPhe(3-Cl-4-CF3)]P[Ac5c][NMeGly(cPent)][NMeD]-{3Oxa8azabicyclo(3.2.1)octane}; lactam N-11),20 to 50 nM
15,CC[C@H](C)[C@@H]1NC(=O)[C@H](CC(C)C)N(C)C(=O)C[C@@H](C(=O)N(C)C)N(C)C(=O)[C@H](C2CCCC2)N(C)C(=O)C2(CCCC2)NC(=O)[C@H](CC(=O)N2CCCC2)N(C)C(=O)[C@H](CCc2ccc(C(F)(F)F)c(Cl)c2)NC(=O)CN(C)C(=O)[C@H](CC2CCCCC2)N(C)C(=O)[C@@H]2CCN2C(=O)[C@H](C)N(C)C1=O [Compound 2097] ([NMeL]I[NMeA][Aze][NMeCha][Sar][hPhe(3-Cl-4-CF3)][NMeD](Pyrrolidide)[Ac5c][NMeGly(cPent)][NMeD]-NMe2; lactam N-11),100 to 500 nM
16,CC[C@H](C)[C@@H]1NC(=O)[C@H](CC(C)C)N(C)C(=O)C[C@@H](C(=O)N2CCC2)N(C)C(=O)[C@H](C(C)C)N(C)C(=O)C2(CCCC2)NC(=O)[C@@H]2CCCN2C(=O)[C@H](CCc2ccc(C(F)(F)F)c(Cl)c2)NC(=O)CN(C)C(=O)[C@H](CC2CCCCC2)N(C)C(=O)[C@@H]2CCN2C(=O)[C@H](C)N(C)C1=O [Compound 256] ([NMeL]I[NMeA][Aze][NMeCha][Sar][hPhe(3-Cl-4-CF3)]P[Ac5c][NMeV][NMeD]-{Azetidin(1-yl)}; lactam N-11),100 to 500 nM
17,"CC[C@H](C)[C@@H]1NC(=O)[C@H](CC(C)C)N(C)C(=O)C[C@@H](C(=O)N2CCCCC2)N(C)C(=O)[C@H](CC(C)C)N(C)C(=O)C2(CCCC2)NC(=O)[C@@H]2C[C@H](OCc3ccc(Cl)cc3)CN2C(=O)[C@H](CCc2ccc(C(F)(F)F)c(F)c2)NC(=O)CN(C)C(=O)[C@H](CC2CCCCC2)N(C)C(=O)CN(C)C(=O)CN(C)C1=O [Compound 2129] ([NMeL]I[Sar][Sar][NMeCha][Sar][hPhe(3-F,4-CF3)][cisHyp](Benzyl(4-Cl))[Ac5c][NMeL][NMeD]-Piperidide; lactam N-11)",> 500 nM
